From article PMC3353181, “A gallotannin-rich fraction from Caesalpinia spinosa (Molina) Kuntze displays cytotoxic activity and raises sensitivity to doxorubicin in a leukemia cell line” (BMC Complementary and Alternative Medicine, 2012)

Experiments:
[1] = tested on: melanoma cells (RPMI-7951); set-up: method as in PMID 1431932; settings: cited from earlier work
[2] = tested on: K562; test: P2Et adjuvant activity (MTT), K562; type: cell-based, human; settings: sub-optimal tested concentrations
Method: P2Et fraction adjuvant activity was assessed using K562 and MCF7 cells in combination with the well-known cancer treatment drugs doxorubicin, vincristine, taxol and camptothecin. Cell viability was evaluated by means of the MTT assay. […] Results are expressed as cell viability percentage relative to the control (100 × Treatment OD/Negative control OD).
K562 (A) or MCF7 (B) cells were treated with the P2Et fraction or ethanol (negative control) for 6 h, washed and treated with doxorubicin (Dx), vincristine (Vt), camptothecin (Ct) or taxol (Tx) at the concentrations shown over a 48 h period. Cell cytotoxicity was estimated using the MTT assay. Data represent three independent experiments. *** (p < 0.001).

[3] = tested on: gingival fibroblasts; test: MTT cytotoxicity assay, gingival fibroblasts; type: cell-based; settings: Homo sapiens, Fibroblast, normal gingival fibroblasts, concentration ± SE
From the text: (§1) The cell lines used as cancer cells were K562, a human erythroleukemia and MCF7, a human breast adenocarcinoma, from the American Type Culture Collection (ATCC); and the cell lines used as normal cells were human peripheral blood mononuclear cells (PBMC) and human fibroblasts obtained from normal healthy donors after informed consent was given. This project was approved by the ethics committee (founded in 2002) of the Science Faculty at a meeting on August 21, 2007. The culture conditions under which the cell lines were maintained have already been reported.
(§2) The cytotoxic effects of the fractions and conventional chemotherapeutic drugs (doxorubicin, etoposide, vincristine and taxol) were evaluated using normal and tumor cells by means of trypan blue and the methylthiazol tetrazolium (MTT) assay, as previously reported. The P2Et fraction was dissolve in ethanol and the corresponding vehicle was used as a negative control.
(§3) Figure 2 Induction of morphological changes and cytotoxicity in K562 cells by C. spinosa fractions without affecting normal human cells. […] Morphological changes were evaluated by direct observation using a light microscope at a magnification of 40X (B: 1. Ethanol; 2. S2Et; 3. P2Et; and 4. Etoposide). […]
(§4) Additionally, the cytotoxic activity of C. spinosa fractions was evaluated using gingival fibroblasts from the oral mucosa or normal human mononuclear cells. […]

[4] = tested on: PBMC; test: MTT cytotoxicity assay, PBMC; type: cell-based; settings: Homo sapiens, normal PBMC, concentration ± SE
From the text: as §1, §2, §3, §4

[5] = tested on: HL-60 cell line; set-up: method as in PMID 10554885; settings: cited from earlier work

SMILES: O=C(O[C@H]1[C@H](O)C[C@](O)(C(=O)O)C[C@H]1OC(=O)c1cc(O)c(O)c(O)c1)c1cc(O)c(O)c(O)c1 [4,5-di-O-galloylquinic acid]
- Cytotoxicity against melanoma cells [1]: moderate cytotoxicity

SMILES: COc1cccc2c1C(=O)c1c(O)c3c(c(O)c1C2=O)C[C@@](O)(C(=O)CO)C[C@@H]3O[C@H]1C[C@H](N)[C@H](O)[C@H](C)O1 [Doxorubicin]
- Effect on cell viability, used separately [2]: slight effect

SMILES: COc1cc([C@@H]2c3cc4c(cc3[C@@H](O[C@@H]3O[C@@H]5CO[C@@H](C)O[C@H]5[C@H](O)[C@H]3O)[C@H]3COC(=O)[C@H]23)OCO4)cc(OC)c1O [Etoposide]
- IC50 [3]: > 200 µg/mL
- IC50 [4]: > 200 µg/mL

SMILES: O=C(OC[C@H]1O[C@@H](OC(=O)c2cc(O)c(O)c(O)c2)[C@H](OC(=O)c2cc(O)c(O)c(O)c2)[C@@H](OC(=O)c2cc(O)c(O)c(O)c2)[C@@H]1OC(=O)c1cc(O)c(O)c(O)c1)c1cc(O)c(O)c(O)c1 [PGG, 1,2,3,4,6-penta-O-galloyl-β-D-glucose]
- Induction of apoptosis [5]: able to induce caspase-mediated apoptosis
